# Data: patent US9663457B2, “Carbamoyl hydrazine derivatives as formyl peptide modulators” (Allergan, Inc., priority 2014, dated 2017)
# Target: T1, FPR2 (Homo sapiens, UniProt P25090)
# T1 construct: expressed in transfected cells; host or cells: HEK-Gα16, CHO-Gα16 and HEK-Gqi5 cells stably expressing FPR2
# T1 sequence (P25090 1-351): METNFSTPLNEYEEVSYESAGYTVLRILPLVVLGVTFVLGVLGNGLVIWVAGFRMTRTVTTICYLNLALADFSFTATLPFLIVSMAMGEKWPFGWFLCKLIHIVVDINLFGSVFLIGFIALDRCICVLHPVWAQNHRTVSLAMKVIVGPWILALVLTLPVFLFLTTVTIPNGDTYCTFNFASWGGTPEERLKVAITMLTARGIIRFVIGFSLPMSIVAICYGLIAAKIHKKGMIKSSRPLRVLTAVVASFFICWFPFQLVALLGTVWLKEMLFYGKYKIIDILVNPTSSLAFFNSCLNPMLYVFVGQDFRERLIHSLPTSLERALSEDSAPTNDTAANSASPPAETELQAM
# Test: FPR2 compound-induced calcium activity assay on FLIPR Tetra
# Type: cell-based
# Settings: HEK-Gα16, CHO-Gα16 or HEK-Gqi5 cells stably expressing FPR2, tested at 0.61 to 10,000 nM; for Emax: read-out: % Efficacy
# Method: Compounds of Formula I modulate FPR activity. […] HEK-Gα16 and CHO-Gα16 cells stably expressing FPR2 were cultured in (F12, 10% FBS, 1% PSA, 400 μg/ml geneticin and 50 μg/ml hygromycin) and HEK-Gqi5 cells stable expressing FPR2 were cultured in (DMEM high glucose, 10% FBS, 1% PSA, 400 μg/ml geneticin and 50 μg/ml hygromycin). In general, the day before the experiment, 18,000 cells/well were plated in a 384-well clear bottom poly-D-lysine coated plate. The following day, the screening compound-induced calcium activity was assayed on the FLIPR^Tetra. The drug plates were prepared in 384-well microplates using the EP3 and the MuItiPROBE robotic liquid handling systems. Compounds were tested at concentrations ranging from 0.61 to 10,000 nM. Results are expressed as EC50 (nM) and efficacy values.
SMILES,EC50 [µM],Emax [%]
"CCCC(CCC)(CC(=O)NNC(=O)Nc1ccc(Br)cc1)C(=O)OC [Compound 4, methyl 2-(2-{2-[(4-bromophenyl)carbamoyl]hydrazinyl}-2-oxoethyl)-2-propylpentanoate]",0.046,89
"CCCN(NC(=O)Nc1ccc(C(F)(F)F)cc1)C(=O)CCC(=O)O [Compound 14, 4-oxo-4-(1-propyl-2-{[4-(trifluoromethyl)phenyl]carbamoyl}hydrazinyl)butanoic acid]",0.028,97
"CCCC(CCC)(CC(=O)NNC(=O)Nc1ccc(Br)cc1)C(=O)O [Compound 5, 2-[2-(2-{[(4-Bromophenyl)amino]carbonyl}hydrazino)-2-oxoethyl]-2-propylpentanoic Acid]",0.215,87
"CCCN(NC(=O)Nc1ccc(Br)cc1F)C(=O)CCC(=O)O [Compound 17, 4-{2-[(4-bromo-2-fluorophenyl)carbamoyl]-1-propylhydrazinyl}-4-oxobutanoic acid]",0.029,100
"CCC(CC)(CC(=O)NNC(=O)Nc1ccc(Br)cc1)C(=O)O [Compound 6, 4-{2-[(4-bromophenyl)carbamoyl]hydrazinyl}-2,2-diethyl-4-oxobutanoic acid]",0.421,73
"CCOC(=O)CC(=O)NNC(=O)Nc1ccc(Br)cc1 [Compound 1, Ethyl 3-{2[(4-bromophenyl)carbamoyl]hydrazinyl}-3-oxopropanoate]",0.75,100
"CC(C)CN(NC(=O)Nc1ccc(Br)cc1F)C(=O)CCC(=O)O [Compound 10, 4-{2-[(4-bromo-2-fluorophenyl)carbamoyl]-1-(2-methylpropyl)hydrazinyl}-4-oxobutanoic acid]",0.339,99
"CC(C)CN(NC(=O)Nc1ccc(Br)cc1)C(=O)CCC(=O)O [Compound 8, 4-{2-[(4-Bromophenyl)carbamoyl]-1-(2-methylpropyl)hydrazinyl}-4-oxobutanoic Acid]",0.012,100
"CCCN(NC(=O)Nc1ccc(Br)cc1F)C(=O)CCC(=O)OCC [Compound 16, ethyl 4-{2-[(4-bromo-2-fluorophenyl)carbamoyl]-1-propylhydrazinyl}-4-oxobutanoate]",0.034,100
"CC(C)CN(NC(=O)Nc1ccc(C(F)(F)F)cc1)C(=O)CCC(=O)O [Compound 12, 4-[1-(2-methylpropyl)-2-{[4-(trifluoromethyl)phenyl]carbamoyl}hydrazinyl]-4-oxobutanoic acid]",0.021,98
"CC(C)(CC(=O)NNC(=O)Nc1ccc(Br)cc1)C(=O)O [Compound 3, 4-{2-[(4-bromophenyl)carbamoyl]hydrazinyl}-2,2-dimethyl-4-oxobutanoic acid]",0.602,86
"CC(C)(C(=O)O)C(=O)NNC(=O)Nc1ccc(Br)cc1 [Compound 2, 3-{2-[(4-Bromophenyl)carbamoyl]hydrazinyl}-2,2-dimethyl-3-oxopropanoic Acid]",5.21,73
"CCOC(=O)CCC(=O)N(CC(C)C)NC(=O)Nc1ccc(C(F)(F)F)cc1 [Compound 11, ethyl 4-[1-(2-methylpropyl) 2{[4-(trifluoromethyl)phenyl]carbamoyl}hydrazinyl]-4-oxobutanoate]",0.057,94
"CCOC(=O)CCC(=O)N(CC(C)C)NC(=O)Nc1ccc(Br)cc1 [Compound 7, Ethyl 4-{2-[(4-Bromophenyl)carbamoyl]-1-(2-methylpropyl)hydrazinyl}-4-oxobutanoate]",0.031,100
"CCCCN(NC(=O)Nc1ccc(Br)cc1)C(=O)CCC(=O)OCC [Compound 15, ethyl 4-{2-[(4-bromophenyl)carbamoyl]-1-butylhydrazinyl}-4-oxobutanoate]",0.034,100
"CCOC(=O)CCC(=O)N(CC(C)C)NC(=O)Nc1ccc(Br)cc1F [Compound 9, ethyl 4-{2-[(4-bromo-2-fluorophenyl)carbamoyl]-1-(2-methylpropyl)hydrazinyl}-4-oxobutanoate]",3.66,76
"CCCN(NC(=O)Nc1ccc(C(F)(F)F)cc1)C(=O)CCC(=O)OCC [Compound 13, ethyl 4-oxo-4-(1-propyl-2-{[4-(trifluoromethyl)phenyl]carbamoyl}hydrazinyl)butanoate]",0.035,98
